Reference: US12691070B2, “Cationic lipids and preparation method thereof” (RiboX Therapeutics HK Limited, priority 2023, dated 2026)

Key:
BALB/C mice = assay: In vivo expression, whole-body luminescence (IVIS); settings: cirRNA (SEQ ID NO: 1) LNPs, BALB/C mice
Method: 6-8 week old, female BALB/C mice were injected with 0.05 mg*kg-1 of RNA-LNPs encoding for firefly-luciferase by intravenous injection. At 6 hours post injection, animals were intraperitoneally injected with 15 mg/ml of Luciferin substrate and whole-body luminescence was determined by a bioluminescent in vivo imaging system (IVIS).

Hep G2 cells [1] = assay: In vitro toxicity (CellTiter-Glo cell viability), Hep G2; format: cell-based; settings: cirRNA (SEQ ID NO: 1) LNPs; Hep G2 cells;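 further: percent of untreated cells luminescence signal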
Method in brief: (§1)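 Toxicity of RNA-LNPs (1 μg/mL) is reported as cell viability, calculated from CellTiter-Glo luminescence measured at 72 hours after transfection.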

RAW 264.7 cells [2] = assay: In vitro expression of firefly-luciferase, RAW 264.7; format: cell-based; settings: cirRNA (SEQ ID NO: 1) LNPs; firefly-luciferase luminescence; RAW 264.7 cells
Method in brief: (§2)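 Transfection used 100 ng/mL luciferase-encoding RNA-LNPs; activity in lysates was determined at 72 h.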

[3] = LNP size and polydispersity index (PDI) by dynamic light scattering; format: physicochemical; settings: LNP with cirRNA (SEQ ID NO: 1); for Size: in nm (unit assumed)
Method: (§3) Ionizable lipid, DSPC, Cholesterol and DMG-PEG 2000 were mixed at a molar ratio of 50:10:38.5:1.5 in absolute ethanol. Circular RNA and linear mRNA payloads were suspended in 25 mM Acetate Buffer (pH 4.5). To form LNPs, three volumes of luciferase encoding RNA, in the form of cirRNA (SEQ ID NO:1) and mRNA (SEQ ID NO:2) respectively, were mixed with one volume of lipids in ethanol solution by microfluidic mixing with the Nanoassemblr Ignite (Precision Nanosystems) at a flow rate of 12 ml/min. The molar ratio of ionizable lipid to ribonucleotide was 15 or 6. The final lipid concentration in solution ranged from 1.5 mM to 6 mM. After encapsulation, the particles were dialyzed twice against PBS.
(§4) The LNP size and polydispersity index (PDI), determined by dynamic light scattering (DLS), and zeta potential were measured by a Zetasizer machine (Malvern). RNA concentration and encapsulation efficacy were analyzed by the Quant-IT Ribogreen kit by calculating the percentage encapsulation at 100%−(RNA-LNPs/RNA-LNPs with Triton X-100).

[4] = RNA encapsulation efficacy by Quant-IT Ribogreen kit; format: physicochemical; settings: LNP with cirRNA (SEQ ID NO: 1)
Method: as §3, §4

[5] = LNP zeta potential (Zetasizer); format: physicochemical; settings: LNP with cirRNA (SEQ ID NO: 1)
Method: as §3, §4

RAW 264.7 cells [6] = assay: In vitro toxicity (CellTiter-Glo cell viability), RAW 264.7; format: cell-based; settings: cirRNA (SEQ ID NO: 1) LNPs; RAW 264.7 cells;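 further: percent of untreated cells luminescence signal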
Method in brief: as §1

Hep G2 cells [7] = assay: In vitro expression of firefly-luciferase, Hep G2; format: cell-based; settings: cirRNA (SEQ ID NO: 1) LNPs; firefly-luciferase luminescence; Hep G2 cells
Method in brief: as §2

| SMILES | PDI [3] | Size [3] | Encapsulation Efficiency % [4] [%] | Zeta (mV) [5] [mV] | In vivo Expression (Whole Body) (BALB/C mice) | In vitro Viability HepG2 (Hep G2 cells [1]) [%] | In vitro Expression RAW (RAW 264.7 cells [2]) | In vitro Viability RAW (RAW 264.7 cells [6]) [%] | In vitro Expression HepG2 (Hep G2 cells [7]) |
| --- | --- | --- | --- | --- | --- | --- | --- | --- | --- |
| CCCCCCOC(=O)CCCCCCCCCCN(CCCCCCCCCCC(=O)OCCCCCC)CCOC(=O)NCCN(C)C [Lipid 136, hexyl 10-(11-(hexyloxy)-11-oxoundecyl)-2-methyl-6-oxo-7-oxa-2,5,10-triazahenicosan-21-oate] | 0.146 | 143.7 | 95 | 16.11 | 6.14E+03 | 20 | 1.93E+02 | 8 | 2.15E+03 |
| CCCCCCOC(=O)CCCCCCCCCCN(CCCCCCCCCCC(=O)OCCCCCC)CCOC(=O)NCCCN(CC)CC [Lipid 137, hexyl 3-ethyl-12-(11-(hexyloxy)-11-oxoundecyl)-8-oxo-9-oxa-3,7,12-triazatricosan-23-oate] | 0.1423 | 224.1 | 92 | 19.29 | 1.84E+05 | 12 | 1.21E+02 | 9 | 1.57E+03 |
| CCCCCCOC(=O)CCCCCCCCCCN(CCCCCCCCCCC(=O)OCCCCCC)CCOC(=O)NCCN1CCN(C)CC1 [Lipid 138, dihexyl 11,11′-((2-(((2-(4-methylpiperazin-1-yl)ethyl)carbamoyl)oxy)ethyl)azanediyl)diundecanoate] | 0.1821 | 130.8 | 96 | 15.82 | 1.30E+05 | 12 | 9.75E+01 | 10 | 6.75E+01 |
| CCCCCCCCC(CCCCCCCC)OC(=O)CCCCCCCN(CCCCCCCCOC(=O)C(CCCCCC)CCCCCCCC)CCOC(=O)NCCCN(C)C (stereo not drawn) [Lipid 146, heptadecan-9-yl 11-(8-((2-hexyldecanoyl)oxy)octyl)-2-methyl-7-oxo-8-oxa-2,6,11-triazanonadecan-19-oate] | 0.2699 | 59.34 | 87 | 20.28 | 4.74E+06 | 41 | 8.92E+04 | 99 | 9.18E+05 |
| CCCCCCCCC(CCCCCCCC)OC(=O)CCCCCCCN(CCCCCCCCOC(=O)C(CCCCCC)CCCCCCCC)CCOC(=O)NCCCn1ccnc1 (stereo not drawn) [Lipid 147, 8-((2-(((3-(1H-imidazol-1-yl)propyl)carbamoyl)oxy)ethyl)(8-(heptadecan-9-yloxy)-8-oxooctyl)amino)octyl 2-hexyldecanoate] | 0.07303 | 53.54 | 86 | 4.888 | 5.02E+07 | 87 | 7.92E+03 | 65 | 1.60E+04 |
| CCCCCCCCC(CCCCCCCC)OC(=O)CCCCCCCN(CCCCCCCCOC(=O)C(CCCCCC)CCCCCCCC)CCOC(=O)NCCN1CCCCC1 (stereo not drawn) [Lipid 149, 8-((8-(heptadecan-9-yloxy)-8-oxooctyl)(2-(((2-(piperidin-1-yl)ethyl)carbamoyl)oxy)ethyl)amino)octyl 2-hexyldecanoate] | 0.02962 | 71.14 | 88 | 9.196 | 6.07E+07 | 123 | 1.91E+04 | 100 | 2.08E+05 |

Second part, led by results:

| PDI [3] | Size [3] | Encapsulation Efficiency % [4] [%] | Zeta (mV) [5] [mV] | SMILES | In vivo Expression (Whole Body) (BALB/C mice) | In vitro Viability HepG2 (Hep G2 cells [1]) [%] | In vitro Expression RAW (RAW 264.7 cells [2]) | In vitro Viability RAW (RAW 264.7 cells [6]) [%] | In vitro Expression HepG2 (Hep G2 cells [7]) |
| --- | --- | --- | --- | --- | --- | --- | --- | --- | --- |
| 0.05565 | 91.37 | 79 | 17.84 | CCCCCCCCCCCOC(=O)CCCCCN(CCCCCC(=O)OCCCCCCCCCCC)CCOC(=O)NCCN1CCCCC1 [Lipid 150, diundecyl 6,6′-((2-(((2-(piperidin-1-yl)ethyl)carbamoyl)oxy)ethyl)azanediyl)dihexanoate] | 7.27E+05 | 114 | 6.81E+02 | 104 | 1.44E+04 |
| 0.1693 | 98.37 | 89 | 20.18 | CCCCCCCCCCCOC(=O)CCCCCN(CCCCCC(=O)OCCCCCCCCCCC)CCOC(=O)NCCN1CCCC1 [Lipid 151, diundecyl 6,6′-((2-(((2-(pyrrolidin-1-yl)ethyl)carbamoyl)oxy)ethyl)azanediyl)dihexanoate] | 1.18E+05 | 110 | 3.27E+01 | 99 | 8.79E+03 |
| 0.09308 | 71.11 | 89 | 18.95 | CCCCCCCCCCCOC(=O)CCCCCN(CCCCCC(=O)OCCCCCCCCCCC)CCOC(=O)NCCCN(C)C [Lipid 153] | 1.02E+05 | 120 | 2.44E+02 | 104 | 1.95E+04 |
| 0.1144 | 75.25 | 90 | 25.23 | CCCCCCCCCCCOC(=O)CCCCCN(CCCCCC(=O)OCCCCCCCCCCC)CCOC(=O)NCCN(C)C [Lipid 154, undecyl 2-methyl-6-oxo-10-(6-oxo-6-(undecyloxy)hexyl)-7-oxa-2,5,10-triazahexadecan-16-oate] | 1.01E+05 | 106 | 2.36E+03 | 101 | 2.59E+05 |
| 0.1182 | 92.39 | 76 | 15.16 | CCCCCCCCCCCOC(=O)CCCCCN(CCCCCC(=O)OCCCCCCCCCCC)CCOC(=O)NCc1ncc[nH]1 [Lipid 155, diundecyl 6,6′-((2-((((1H-imidazol-2-yl)methyl)carbamoyl)oxy)ethyl)azanediyl)dihexanoate] | 5.77E+07 | 111 | 5.98E+02 | 101 | 2.72E+04 |
